Source: the NIST ThermoML archive (doi:10.1021/je900969u)
± gives the expanded uncertainty stated by the source.

Columns and labels:
[1] = xn = mol fraction of the nth substance listed; details: 101 kPa, Liquid
[2] = 101 kPa, Liquid

Which results are given for `CN1CCNCC1` [N-methylpiperazine] + CCCCCCC?
mass density ([1]; 298.15 K, x1 = 0.1006): 695.86 ± 0.68 kg/m3; viscosity ([1]; 298.15 K, x1 = 0.1006): 0.429 ± 0.013 mPa·s; mass density ([1]; 298.15 K, x1 = 0.2012): 713.24 ± 0.65 kg/m3; viscosity ([1]; 298.15 K, x1 = 0.2012): 0.466 ± 0.013 mPa·s; mass density ([1]; 298.15 K, x1 = 0.3006): 731.62 ± 0.61 kg/m3; viscosity ([1]; 298.15 K, x1 = 0.3006): 0.511 ± 0.014 mPa·s; mass density ([1]; 298.15 K, x1 = 0.4014): 751.5 ± 0.57 kg/m3; viscosity ([1]; 298.15 K, x1 = 0.4014): 0.571 ± 0.016 mPa·s; mass density ([1]; 298.15 K, x1 = 0.5007): 772.43 ± 0.53 kg/m3; viscosity ([1]; 298.15 K, x1 = 0.5007): 0.648 ± 0.017 mPa·s; mass density ([1]; 298.15 K, x1 = 0.5996): 794.38 ± 0.48 kg/m3; viscosity ([1]; 298.15 K, x1 = 0.5996): 0.756 ± 0.02 mPa·s; mass density ([1]; 298.15 K, x1 = 0.7): 818.02 ± 0.44 kg/m3; viscosity ([1]; 298.15 K, x1 = 0.7): 0.905 ± 0.023 mPa·s; mass density ([1]; 298.15 K, x1 = 0.7979): 842.73 ± 0.39 kg/m3; viscosity ([1]; 298.15 K, x1 = 0.7979): 1.094 ± 0.027 mPa·s; mass density ([1]; 298.15 K, x1 = 0.9036): 871.01 ± 0.34 kg/m3; viscosity ([1]; 298.15 K, x1 = 0.9036): 1.474 ± 0.036 mPa·s; mass density ([1]; 298.15 K, x1 = 1): 899.28 ± 0.29 kg/m3; viscosity ([1]; 298.15 K, x1 = 1): 1.856 ± 0.045 mPa·s; mass density ([1]; 303.15 K, x1 = 0.1006): 691.57 ± 0.69 kg/m3; viscosity ([1]; 303.15 K, x1 = 0.1006): 0.395 ± 0.012 mPa·s; mass density ([1]; 303.15 K, x1 = 0.2012): 708.91 ± 0.65 kg/m3; viscosity ([1]; 303.15 K, x1 = 0.2012): 0.438 ± 0.013 mPa·s; mass density ([1]; 303.15 K, x1 = 0.3006): 727.27 ± 0.61 kg/m3; viscosity ([1]; 303.15 K, x1 = 0.3006): 0.481 ± 0.014 mPa·s; mass density ([1]; 303.15 K, x1 = 0.4014): 747.13 ± 0.57 kg/m3; viscosity ([1]; 303.15 K, x1 = 0.4014): 0.533 ± 0.015 mPa·s; mass density ([1]; 303.15 K, x1 = 0.5007): 768.04 ± 0.53 kg/m3; viscosity ([1]; 303.15 K, x1 = 0.5007): 0.599 ± 0.016 mPa·s; mass density ([1]; 303.15 K, x1 = 0.5996): 789.99 ± 0.49 kg/m3; viscosity ([1]; 303.15 K, x1 = 0.5996): 0.699 ± 0.018 mPa·s; mass density ([1]; 303.15 K, x1 = 0.7): 813.61 ± 0.45 kg/m3; viscosity ([1]; 303.15 K, x1 = 0.7): 0.815 ± 0.021 mPa·s; mass density ([1]; 303.15 K, x1 = 0.7979): 838.32 ± 0.4 kg/m3; viscosity ([1]; 303.15 K, x1 = 0.7979): 0.995 ± 0.025 mPa·s; mass density ([1]; 303.15 K, x1 = 0.9036): 866.62 ± 0.35 kg/m3; viscosity ([1]; 303.15 K, x1 = 0.9036): 1.234 ± 0.03 mPa·s; mass density ([1]; 303.15 K, x1 = 1): 894.9 ± 0.3 kg/m3; viscosity ([1]; 303.15 K, x1 = 1): 1.544 ± 0.037 mPa·s; mass density ([1]; 313.15 K, x1 = 0.1006): 682.9 ± 0.7 kg/m3; viscosity ([1]; 313.15 K, x1 = 0.1006): 0.36 ± 0.011 mPa·s; mass density ([1]; 313.15 K, x1 = 0.2012): 700.2 ± 0.66 kg/m3; viscosity ([1]; 313.15 K, x1 = 0.2012): 0.389 ± 0.012 mPa·s; mass density ([1]; 313.15 K, x1 = 0.3006): 718.49 ± 0.63 kg/m3; viscosity ([1]; 313.15 K, x1 = 0.3006): 0.424 ± 0.012 mPa·s; mass density ([1]; 313.15 K, x1 = 0.4014): 738.3 ± 0.59 kg/m3; viscosity ([1]; 313.15 K, x1 = 0.4014): 0.467 ± 0.013 mPa·s; mass density ([1]; 313.15 K, x1 = 0.5007): 759.18 ± 0.54 kg/m3; viscosity ([1]; 313.15 K, x1 = 0.5007): 0.527 ± 0.015 mPa·s; mass density ([1]; 313.15 K, x1 = 0.5996): 781.1 ± 0.5 kg/m3; viscosity ([1]; 313.15 K, x1 = 0.5996): 0.603 ± 0.016 mPa·s; mass density ([1]; 313.15 K, x1 = 0.7): 804.71 ± 0.46 kg/m3; viscosity ([1]; 313.15 K, x1 = 0.7): 0.691 ± 0.018 mPa·s; mass density ([1]; 313.15 K, x1 = 0.7979): 829.43 ± 0.41 kg/m3; viscosity ([1]; 313.15 K, x1 = 0.7979): 0.826 ± 0.021 mPa·s; mass density ([1]; 313.15 K, x1 = 0.9036): 857.75 ± 0.36 kg/m3; viscosity ([1]; 313.15 K, x1 = 0.9036): 1.024 ± 0.026 mPa·s; mass density ([1]; 313.15 K, x1 = 1): 886.07 ± 0.31 kg/m3; viscosity ([1]; 313.15 K, x1 = 1): 1.25 ± 0.031 mPa·s

What does the source list for `CCCCCCC` [heptane]?
mass density ([2]; 298.15 K): 679.72 ± 0.72 kg/m3; viscosity ([2]; 298.15 K): 0.404 ± 0.012 mPa·s; mass density ([2]; 303.15 K): 675.46 ± 0.72 kg/m3; viscosity ([2]; 303.15 K): 0.383 ± 0.012 mPa·s; mass density ([2]; 313.15 K): 666.84 ± 0.73 kg/m3; viscosity ([2]; 313.15 K): 0.342 ± 0.011 mPa·s

For `CCCCCCC` [heptane] + CN1CCNCC1, which mass density ([1]; 298.15 K, x2 = 0) is on record?
Its mass density is 679.72 ± 0.72 kg/m3.

And the viscosity ([1]; 298.15 K, x2 = 0)?
The viscosity was 0.404 ± 0.012 mPa·s.

What about the mass density ([1]; 303.15 K, x2 = 0) of the same compound?
Its mass density is 675.46 ± 0.72 kg/m3.

What about the viscosity ([1]; 303.15 K, x2 = 0) of the same compound?
The viscosity was 0.383 ± 0.012 mPa·s.

What about the mass density ([1]; 313.15 K, x2 = 0) of the same compound?
The mass density was 666.84 ± 0.73 kg/m3.

What about the viscosity ([1]; 313.15 K, x2 = 0) of the same compound?
Its viscosity is 0.342 ± 0.011 mPa·s.

What does the source list for `CC1CCCCC1` [methylcyclohexane]?
mass density ([2]; 298.15 K): 765 ± 1.9 kg/m3; viscosity ([2]; 298.15 K): 0.719 ± 0.02 mPa·s; mass density ([2]; 303.15 K): 760.67 ± 2 kg/m3; viscosity ([2]; 303.15 K): 0.655 ± 0.019 mPa·s; mass density ([2]; 313.15 K): 751.94 ± 2 kg/m3; viscosity ([2]; 313.15 K): 0.573 ± 0.017 mPa·s

Which mass density ([1]; 298.15 K, x2 = 0) does the source give for `CC1CCCCC1` [methylcyclohexane] + CN1CCNCC1 here?
The mass density was 765 ± 1.9 kg/m3.

And the viscosity ([1]; 298.15 K, x2 = 0)?
Its viscosity is 0.719 ± 0.02 mPa·s.

What about the mass density ([1]; 303.15 K, x2 = 0) of the same compound?
Its mass density is 760.67 ± 2 kg/m3.

And the viscosity ([1]; 303.15 K, x2 = 0)?
Its viscosity is 0.655 ± 0.019 mPa·s.

What about the mass density ([1]; 313.15 K, x2 = 0) of the same compound?
Its mass density is 751.94 ± 2 kg/m3.

And the viscosity ([1]; 313.15 K, x2 = 0)?
The viscosity was 0.573 ± 0.017 mPa·s.
